Test results taken from publication PMC9579733 (Journal of Orthopaedic Translation, 2022).

Experiments:
MC3T3-E1 cells = experiment: ALP activity analysis of MC3T3-E1 cells; type: cell-based, mouse; details: osteogenic differentiation medium, GPA 50 μM or SGPA 2.5-10 μM; 14 days (method) / 7 days (Fig. 3 legend)
FXR-RUNX2 signalling = FXR-RUNX2 signalling in femur of OVX mice; type: in vivo, C57BL/6J mice; details: 20 mg/kg intravenously daily for 4 weeks, qRT-PCR, n = 6
[1] = ref [9],[10]; cited from earlier work
[2] = tested on: farnesoid X receptor (FXR); details: ref [11],[12]; cited from earlier work
[3] = tested on: osteoblast-specific factor 2 (OSF-2); details: ref [21]; cited from earlier work
human and mouse OBs = details: peptide screened by phage technology; ref [21]; cited from earlier work

| Molecule | ALP activity (MC3T3-E1 cells) | mRNA expression of Bsep (a target gene for FXR) in femur (FXR-RUNX2 signalling) | mRNA expression of Runx2 in femur (FXR-RUNX2 signalling) | tissue enrichment of GPA [1] | activation of farnesoid X receptor (FXR) [2] | affinity with osteoblast-specific factor 2 (OSF-2) [3] | targeting of OBs (human and mouse OBs) |
| --- | --- | --- | --- | --- | --- | --- | --- |
| O=C(O)C1=CO[C@@H](O[C@@H]2O[C@H](CO)[C@@H](O)[C@H](O)[C@H]2O)[C@@H]2C(CO)=CC[C@H]12 [GPA, Geniposidic acid] | increased | significantly increased | significantly increased | enriched in liver and kidney | activated |  |  |
| Ser-Asp-Ser-Ser-Asp [SDSSD] |  |  |  |  |  | high affinity | can specifically target both human and mouse OBs |
